For assay [1], the target named is T1, HLA-A*02:01 molecule (Homo sapiens, UniProt P04439, D140Y/D185E/D98H/E176V/E277Q/G131W/G231S/I119V/I121R/I166T/I218V/L300P/L318F/N151K/N90K/P208A/P217A/Q86G/Q94H/R138H/R169H/T345S).
T1 construct: host or cells: T2 (174xCEM.T2) human TAP-deficient cells
Put plainly: Peptide binding affinity assay in TAP-deficient T2 cells. The class given is cell-based. To be noted: peptide 5, 10, 20, 50 and 100 μM, 16 h at 27°C + 2 h at 37 °C, anti HLA-A2 R-PE, flow cytometry, triplicate. As to the method: Peptide binding affinity to HLA-A*02:01 molecule and BFA decay assays were performed for each candidate peptide. Human TAP-deficient T2 cell line (174xCEM.T2; ATCC CRL 1992™) was purchased from American Type Culture Collection (ATCC; https://www.atcc.org/) and cultured in Iscove's modified Dulbecco's medium (IMDM; Gibco Life Technologies) containing 25 mM HEPES and 2 mM L-Glut, supplemented with 20% fetal bovine serum (FBS; Capricorn Scientific GmbH), 100 IU/ml penicillin and 100 μg/ml streptomycin (Gibco Life Technologies). Cells were maintained at 37 °C in a humidified incubator with 5% CO2. Briefly, T2 were seeded at 3.5 × 10^5 cells per well in 24 well plates and incubated 16 h at 27°C with peptides (final concentrations: 5, 10, 20, 50 and 100 μM) in IMDM serum free medium. The next day, cells have been incubated for additional 2 h at 37 °C. Following incubation, cells were harvested and centrifuged at 200 × g for 5 min. Subsequently, cells were washed twice with phosphate buffered saline (1X PBS; Gibco Life Technologies) and stained with R-PE conjugated anti human HLA-A2 mono-clonal antibody (cat. 343,306; BioLegend), for 30 min at 4 °C, and analyzed with the Attune™ NxT flow cytometer (Thermo Fisher Scientific). […] A fluorescence index (FI) was calculated using the following formula: FI = [mean fluorescence intensity (MFI) sample – MFI background]/MFI background, where MFI background represents the value without peptide. […] Cells were harvested every two hours (T0, T2, T4, T6, T8), washed with phosphate buffered saline (1X PBS; Gibco Life Technologies), stained with anti HLA-A*0201 fluorescent monoclonal antibody (cat. 343,306; BioLegend) and analyzed by flow cytometry. The stability of each peptide bound to HLA-A*02:01 was measured as the DC50 value, which was defined as an estimate of the time required for a 50% reduction of the MFI value at time 0. The DC50 value was calculated according to the formula: MFI at indicated time points/MFI at time 0 × 100. […]
Background: In flow cytometry, cells or beads pass a laser one at a time.

The target of assay [2] is T1, HLA-A*02:01 molecule. The assay can be described thus: BFA decay assay (peptide-MHC dissociation) in T2 cells. The class given is cell-based. To be noted: peptide 50 μM, 1X BFA 1 h at 37°C, harvested every two hours T0-T8, flow cytometry, triplicate. As to the method:
Cells were maintained at 37 °C in a humidified incubator with 5% CO2.

As for VIAGIVALV, in assay [1], the “binding to HLA-A*02:01 (HLA surface expression on T2 cells)” value is “dose-dependent increase in the HLA surface expression on T2 cells over the background”. Same read-out and setting: next, VVAGIIALV: “dose-dependent increase in the HLA surface expression on T2 cells over the background”. On to “VVAGIVVLV [TAA derived from the colon ca-associated EPCAM protein]”, for which the “50% dissociation value (Thalf), peptide-MHC dissociation kinetics” value in assay [2] is 4 h. Besides, the “binding to HLA-A*02:01 (HLA surface expression on T2 cells)” value in assay [1] was “dose-dependent increase in the HLA surface expression on T2 cells over the background”.

These data come from PMC9569184, “Antigenic molecular mimicry in viral-mediated protection from cancer: the HIV case” (Journal of Translational Medicine, 2022).
